Values quoted from earlier work, collected in PMC8541945 (Investigational New Drugs, 2021).

Tests used:
patients [1] = test system: patients; set-up: method as in PMID 28580882, PMID 28968163
[2] = test system: brain metastases secondary to HR + /HER2- metastatic BC; set-up: method as in earlier work
[3] = test system: heavily pretreated patients, HR + /HER2- advanced BC; set-up: method as in PMID 28533223; settings: abemaciclib alone, 132 heavily pretreated patients
patients [4] = settings: single agent, phase 1 trials
[5] = test system: patients in the ribociclib group
[6] = following multiple doses, 600-mg dose group

Grade 3/4 neutropenia (patients [1]) [%] | Cmax, geometric mean [range] [6] | SMILES | Confirmed objective intracranial response [2] [%] | Intracranial clinical benefit rate (CR + PR + SD persisting for ≥ 6 months) [2] [%] | Patients with a decrease in the sum of intracranial target lesions [2] [%] | CBR [3] [%] | Confirmed ORR [3] [%] | Median OS [3] [months] | Median PFS [3] [months] | Patients who experienced SD (patients [4]) | Patients with dose interruptions or dose reductions due to QTcF increase ([5]; 13 patients) [%] | Patients with increase of more than 60 ms from baseline in the QTcF interval ([5]; 32 of 335 patients in the ribociclib group) [%]
21.1 | – | CCN1CCN(Cc2ccc(Nc3ncc(F)c(-c4cc(F)c5nc(C)n(C(C)C)c5c4)n3)nc2)CC1 [abemaciclib] | 6 | 25 | 38 | 42.4 | 19.7 | 17.7 | 6.0 | – | – | –
– | – | CC(=O)c1c(C)c2cnc(Nc3ccc(N4CCNCC4)cn3)nc2n(C2CCCC2)c1=O [palbociclib] | – | – | – | – | – | – | – | approximately 30% | – | –
– | 1940 [range, 859–5860] ng/ml | CN(C)C(=O)c1cc2cnc(Nc3ccc(N4CCNCC4)cn3)nc2n1C1CCCC1 [ribociclib] | – | – | – | – | – | – | – | approximately 30% | 4 | 10
